# In US20150105252A1, “SUBSTITUTED PYRAZOLES AS HERBICIDES” (E I DU PONT DE NEMOURS AND COMPANY, priority 2013, published 2015):
# Assays:
# wild poinsettia = test: Test E preemergence; type: in vivo, Euphorbia heterophylla; settings: 21 days, scale 0 to 100
# Description: (§1) Seeds of plant species selected from bermudagrass (Cynodon dactylon), Surinam grass (Brachiaria decumbens), crabgrass, large (large crabgrass, Digitaria sanguinalis), crabgrass, naked (naked crabgrass, Digitaria nuda), foxtail, green (green foxtail, Setaria viridis), johnsongrass (Sorghum halepense), kochia (Kochia scoparia), morningglory (pitted morningglory, Ipomoea lacunosa), nutsedge, purple (purple nutsedge, Cyperus rotundus), ragweed (common ragweed, Ambrosia elation), mustard, black (black mustard, Brassica nigra), guineagrass (Panicum maximum), dallisgrass (Paspalum dilatatum), barnyardgrass (Echinochloa crus-galli), sandbur (southern sandbur, Cenchrus echinatus), sowthistle (common sowthistle, Sonchus oleraceous), ryegrass, Italian (Italian ryegrass, Lolium multiflorum), signalgrass (broadleaf signalgrass, Brachiaria platyphylla), dayflower, VA (Virginia (VA) dayflower, Commelina virginica), bluegrass (annual bluegrass, Poa annua), quackgrass (Elytrigia repens), mallow (common mallow, Malva sylvestris), buckwheat, wild (wild buckwheat, Polygonum convolvulus), leafy spurge (Euphorbia esula), common chickweed (Stellaria media), wild poinsettia (Euphorbia heterophylla), pigweed, palmer (palmer pigweed, Amaranthus palmeri), and pigweed (redroot pigweed, Amaranthus retroflexus) were planted into a blend of loam soil and sand and treated preemergence with test chemicals formulated in a non-phytotoxic solvent mixture which included a surfactant.
# (§2) Treated plants and controls were maintained in a greenhouse for 21 days, after which time all species were compared to controls and visually evaluated. Plant response ratings, summarized in Table E, are based on a scale of 0 to 100 where 0 is no effect and 100 is complete control. A dash (-) response means no test result.
# barnyardgrass = test: Test F postemergence; type: in vivo, Echinochloa crus-galli; settings: scale 0 to 100
# Description: (§3) Seeds of plant species selected from corn (Zea mays), soybean (Glycine max), velvetleaf (Abutilon theophrasti), lambsquarters (Chenopodium album), wild poinsettia (Euphorbia heterophylla), pigweed, palmer (palmer pigweed, Amaranthus palmeri), common waterhemp (Amaranthus rudis), surinam grass (Brachiaria decumbens), large crabgrass (Digitaria sanguinalis), crabgrass, Brazil (Brazilian crabgrass, Digitaria horizontalis), fall panicum (Panicum dichotomiflorum), giant foxtail (Setaria faberii), green foxtail (Setaria viridis), goosegrass (Eleusine indica), johnsongrass (Sorghum halepense), common ragweed (Ambrosia elation), barnyardgrass (Echinochloa crus-galli), southern sandbur (Cenchrus echinatus), arrowleaf sida (Sida rhombifolia), Italian ryegrass (Lolium multiflorum), dayflower, VA (Virginia (VA) dayflower, Commelina virginica), field bindweed (Convolvulus arvensis), cocklebur (common cocklebur, Xanthium strumarium), morningglory (Ipomoea coccinea), nightshade (eastern black nightshade, Solanum ptycanthum), kochia (Kochia scoparia), yellow nutsedge (Cyperus esculentus), and hairy beggarticks (Bidens pilosa), were planted into a silt loam soil and treated preemergence with test chemicals formulated in a non-phytotoxic solvent mixture which included a surfactant.
# (§4) At the same time, plants from these crop and weed species and also horseweed (Canada horseweed, Conyza canadensis), smartweed (ladysthumb smartweed, Polygonum persicaria), waterhemp_RES1, (ALS & Triazine resistant common waterhemp, Amaranthus rudis), and waterhemp_RES2, (ALS & HPPD resistant common waterhemp, Amaranthus rudis) were treated with postemergence applications of test chemicals formulated in the same manner. Plants ranged in height from 2 to 18 cm for postemergence treatments (1- to 4-leaf stage). Treated plants and controls were maintained in a greenhouse for 14 to 21 days, after which time all species were compared to controls and visually evaluated. Plant response ratings, summarized in Table F, are based on a scale of 0 to 100 where 0 is no effect and 100 is complete control. A dash (-) response means no test result.
# ragweed = test: Test E preemergence; type: in vivo, Ambrosia elation; settings: 21 days, scale 0 to 100
# Description: as §1, §2
# southern sandbur = test: Test F postemergence; type: in vivo, Cenchrus echinatus; settings: scale 0 to 100
# Description: as §3, §4
# sandbur = test: Test E preemergence; type: in vivo, Cenchrus echinatus; settings: 21 days, scale 0 to 100
# Description: as §1, §2
# mallow = test: Test E preemergence; type: in vivo, Malva sylvestris; settings: 21 days, scale 0 to 100
# Description: as §1, §2
Structure (SMILES),"Plant response rating, Wild Poinsettia (wild poinsettia; 16 g ai/ha)","Plant response rating, Wild Poinsettia (wild poinsettia; 31 g ai/ha)","Plant response rating, Wild Poinsettia (wild poinsettia; 62 g ai/ha)","Plant response rating, Wild Poinsettia (wild poinsettia; 125 g ai/ha)","Plant response rating, Wild Poinsettia (wild poinsettia; 250 g ai/ha)","Plant response rating, Barnyardgrass (barnyardgrass; Postemergence, 31 g ai/ha)","Plant response rating, Barnyardgrass (barnyardgrass; Postemergence, 125 g ai/ha)","Plant response rating, Barnyardgrass (barnyardgrass; Postemergence, 250 g ai/ha)","Plant response rating, Barnyardgrass (barnyardgrass; postemergence, 62 g ai/ha)","Plant response rating, Barnyardgrass (barnyardgrass; postemergence, 500 g ai/ha)","Plant response rating, Ragweed (ragweed; 16 g ai/ha)","Plant response rating, Ragweed (ragweed; 31 g ai/ha)","Plant response rating, Ragweed (ragweed; 62 g ai/ha)","Plant response rating, Ragweed (ragweed; 125 g ai/ha)","Plant response rating, Ragweed (ragweed; 250 g ai/ha)","Plant response rating, Southern Sandbur (southern sandbur; Postemergence, 31 g ai/ha)","Plant response rating, Southern Sandbur (southern sandbur; Postemergence, 125 g ai/ha)","Plant response rating, Southern Sandbur (southern sandbur; Postemergence, 250 g ai/ha)","Plant response rating, Southern Sandbur (southern sandbur; postemergence, 62 g ai/ha)","Plant response rating, Southern Sandbur (southern sandbur; postemergence, 500 g ai/ha)",other results
CCOc1cc(C(=O)NCC(F)(F)F)nn1Cc1ccnc(C(F)(F)F)c1 [Compound 104],95,100,100,100,100,0,30,80,10,95,100,100,100,100,100,10,45,90,30,90,"Plant response rating, Sandbur (sandbur; 16 g ai/ha): 70; Plant response rating, Sandbur (sandbur; 31 g ai/ha): 90; Plant response rating, Sandbur (sandbur; 62 g ai/ha): 100; Plant response rating, Sandbur (sandbur; 125 g ai/ha): 98; Plant response rating, Sandbur (sandbur; 250 g ai/ha): 100; Plant response rating, Mallow (mallow; 16 g ai/ha): 40; Plant response rating, Mallow (mallow; 31 g ai/ha): 98; Plant response rating, Mallow (mallow; 62 g ai/ha): 100; Plant response rating, Mallow (mallow; 125 g ai/ha): 98; Plant response rating, Mallow (mallow; 250 g ai/ha): 100"
CCCc1cc(C(=O)NCC(F)(F)F)nn1Cc1ccnc(C(F)(F)F)c1 [Compound 105],50,80,100,100,100,10,15,60,5,90,70,100,100,100,100,0,30,70,10,90,"Plant response rating, Sandbur (sandbur; 16 g ai/ha): 5; Plant response rating, Sandbur (sandbur; 31 g ai/ha): 50; Plant response rating, Sandbur (sandbur; 62 g ai/ha): 70; Plant response rating, Sandbur (sandbur; 125 g ai/ha): 95; Plant response rating, Sandbur (sandbur; 250 g ai/ha): 98; Plant response rating, Mallow (mallow; 16 g ai/ha): 100; Plant response rating, Mallow (mallow; 31 g ai/ha): 100; Plant response rating, Mallow (mallow; 62 g ai/ha): 100; Plant response rating, Mallow (mallow; 125 g ai/ha): 100; Plant response rating, Mallow (mallow; 250 g ai/ha): 100"
